In patent publication US20040018150A1, “Prodrugs of phosphonate nucleotide analogues and methods for selecting and making same” (priority 2003, published 2004):

Assays:
[1] = Stability in human plasma; format: in vitro ADME
Protocol: (§1) The in vitro metabolism and stability of separated diastereomers were determined in PLCE, MT-2 extract and human plasma. A biological sample listed below, 80 μL, was transferred into a screw-capped centrifuge tube and incubated at 37° C. for 5 min. A solution containing 0.2 mg/mL of the test compound in a suitable buffer, 20 μL, was added to the biological sample and mixed. The reaction mixture, 20 μL, was immediately sampled and mixed with 60 μL of methanol containing 0.015 mg/mL of 2-hydroxymethylnaphthalene as an internal standard for HPLC analysis. The sample was taken as the time-zero sample. Then, at specific time points, the reaction mixture, 20 μL, was sampled and mixed with 60 μL of methanol containing the internal standard. The mixture thus obtained was centrifuged at 15,000 G for 5 min and the supernatant was analyzed with HPLC under the conditions described below.
(3) Human plasma (pooled normal human plasma from George King Biomedical Systems, Inc.)
In the study for human plasma, the test compound was dissolved in TBS. TBS (tris-buffered saline, Sigma) contains 0.05 M Tris, 0.0027 M potassium chloride, and 0.138 M sodium chloride. pH 7.5 at 37° C.
(§2) The HPLC analysis was carried out under the following conditions.

[2] = Stability / hydrolysis in MT-2 cell extract; format: in vitro ADME
Protocol: as §1
(2) MT-2 cell extract was prepared from MT-2 cells according to the published procedure [A. Pompon, I. Lefebvre, J.-L. Imbach, S. Kahn, and D. Farquhar, “Antiviral Chemistry & Chemotherapy”, 5:91-98 (1994)] except for using HEPES buffer described below as the medium.
In the study for MT-2 cell extracts, the test compound was dissolved in HEPES buffer. HEPES buffer contains 0.010 M HEPES, 0.05 M potassium chloride, 0.005 M magnesium chloride, and 0.005 M dl-dithiothreitol. pH 7.4 at 37° C.
as §2

[3] = system: PLCE (porcine liver carboxyesterase); test: in vitro; format: in vitro ADME
Protocol: as §1
(1) PLCE (porcine liver carboxyesterase from Sigma, 160 u/mg protein, 21 mg protein/mL) diluted 20 fold with PBS (phosphated-buffered saline).
In the study for PLCE, the test compound was dissolved in PBS. PBS (phosphate-buffered saline, Sigma) contains 0.01 M phosphate, 0.0027 M potassium chloride, and 0.137 M sodium chloride. pH 7.4 at 37° C.
as §2

[4] = Incubation of radiolabeled PMPA prodrugs or PMPA in human whole blood; metabolites in plasma, PBMCs and RBCs; format: in vitro ADME; conditions: for Metabolites (% of Total Peak Area): PMPA: human blood, 1 h
Protocol: After 1 hour, plasma, red blood cells (RBCs) and peripheral blood mononuclear cells (PBMCs) were isolated and analyzed by HPLC with radiometric detection.

[5] = Excretion and tissue distribution of radiolabelled prodrug in dogs; conditions: for % Dose / Conc.: dogs, oral 10 mg-eq. PMPA/kg
Protocol: Plasma and peripheral blood mononuclear cells (PBMCs) were obtained over the 24-hr period. Urine and feces were cage collected over 24 hr. At 24 h after the dose, the animals were sacrificed and tissues removed for analysis. Total radioactivity in tissues was determined by oxidation and liquid scintillation counting.

CC(C)OC(=O)OCOP(=O)(CO[C@H](C)Cn1cnc2c(N)ncnc21)OCOC(=O)OC(C)C.O=C(O)/C=C/C(=O)O [TDF, tenofovir disoproxil fumarate, reference compound]
Human Plasma Stability (HP) product ([1]; 37° C., TBS pH 7.5): monoPOC PMPA
Stability T 1/2 Human Plasma ([1]; human, plasma): 0.41 min
Human Plasma Stability (HP) t1/2 ([1]; human, plasma, pH 7.5): 0.41
Stability T 1/2 MT-2 Cell Extract [2]: 70.7 min
MT-2 extract hydrolysis product ([2]; 37° C., HEPES buffer pH 7.4): monoPOC PMPA
MT-2 extract hydrolysis rate t1/2 ([2]; pH 7.4): 70.7 min
PLCE hydrolysis product ([3]; 37° C., PBS pH 7.4): MonoPOC PMPA
PLCE hydrolysis rate t1/2 ([3]; pH 7.4): < 0.14 min
Metabolites (% of Total Peak Area): PMPApp [4]: 18%
Metabolites (% of Total Peak Area): PMPA ([4]; PBMC): 50%
Metabolites (% of Total Peak Area): PMPA ([4]; Plasma/FP): 11%
Metabolites (% of Total Peak Area): PMPA ([4]; RBC/FP): 93%
% Dose ([5]; Abdominal fat, 24 h): 0.00%
Conc. ([5]; Abdominal fat, 24 h): 0.16 ug-eq/g
% Dose ([5]; Adrenal Gland, 24 h): 0.00%
Conc. ([5]; Adrenal Gland, 24 h): 1.90 ug-eq/g
% Dose ([5]; Axillary Lymph Nodes, 24 h): 0.00%
Conc. ([5]; Axillary Lymph Nodes, 24 h): 0.37 ug-eq/g
% Dose ([5]; Bile, 24 h): 0.00%
Conc. ([5]; Bile, 24 h): 9.63 ug-eq/g
% Dose ([5]; Bone Marrow, 24 h): 0.00%
Conc. ([5]; Bone Marrow, 24 h): 0.20 ug-eq/g
% Dose ([5]; Brain, 24 h): 0.00%
Conc. ([5]; Brain, 24 h): <LOD
% Dose ([5]; Cerebrospinal Fluid, 24 h): 0.00%
Conc. ([5]; Cerebrospinal Fluid, 24 h): <LOD
% Dose ([5]; Duodenum, 24 h): 0.49%
Conc. ([5]; Duodenum, 24 h): 4.96 ug-eq/g
% Dose ([5]; Eye (L + R), 24 h): 0.00%
Conc. ([5]; Eye (L + R), 24 h): 0.06 ug-eq/g
% Dose ([5]; Feces, collected over 24 hr): 40.96%
% Dose ([5]; Femoral Bone, 24 h): 0.00%
Conc. ([5]; Femoral Bone, 24 h): 0.08 ug-eq/g
% Dose ([5]; Gall bladder, 24 h): 0.00%
Conc. ([5]; Gall bladder, 24 h): 3.58 ug-eq/g
% Dose ([5]; Heart, 24 h): 0.03%
Conc. ([5]; Heart, 24 h): 0.46 ug-eq/g
% Dose ([5]; Ileum, 24 h): 0.01%
Conc. ([5]; Ileum, 24 h): 0.50 ug-eq/g
% Dose ([5]; Iliac Lymph Nodes, 24 h): 0.00%
Conc. ([5]; Iliac Lymph Nodes, 24 h): 0.51 ug-eq/g
% Dose ([5]; Inguinal Lymph Nodes, 24 h): 0.00%
Conc. ([5]; Inguinal Lymph Nodes, 24 h): 0.28 ug-eq/g
% Dose ([5]; Jejunum, 24 h): 1.34%
Conc. ([5]; Jejunum, 24 h): 3.01 ug-eq/g
% Dose ([5]; Kidney, 24 h): 4.58%
Conc. ([5]; Kidney, 24 h): 87.90 ug-eq/g
% Dose ([5]; Large Intestine, 24 h): 1.63%
Conc. ([5]; Large Intestine, 24 h): 5.97 ug-eq/g
% Dose ([5]; Liver, 24 h): 12.40%
Conc. ([5]; Liver, 24 h): 38.30 ug-eq/g
% Dose ([5]; Lungs, 24 h): 0.03%
Conc. ([5]; Lungs, 24 h): 0.53 ug-eq/g
% Dose ([5]; Mesenteric Lymph Nodes, 24 h): 0.00%
Conc. ([5]; Mesenteric Lymph Nodes, 24 h): 1.20 ug-eq/g
% Dose ([5]; PBMC): 0.00%
% Dose ([5]; Pancreas, 24 h): 0.00%
Conc. ([5]; Pancreas, 24 h): 0.57 ug-eq/g
% Dose ([5]; Pituitary Gland, 24 h): 0.00%
Conc. ([5]; Pituitary Gland, 24 h): 0.23 ug-eq/g
Conc. ([5]; Plasma at 0.25 h): 3.68 ug-eq/g
% Dose ([5]; Plasma at 24 h): 0.00%
Conc. ([5]; Plasma at 24 h): 0.20 ug-eq/g
% Dose ([5]; Prostate, 24 h): 0.00%
Conc. ([5]; Prostate, 24 h): 0.23 ug-eq/g
% Dose ([5]; Salivary Gland (L + R), 24 h): 0.00%
Conc. ([5]; Salivary Gland (L + R), 24 h): 0.45 ug-eq/g
% Dose ([5]; Skeletal Muscle, 24 h): 0.00%
Conc. ([5]; Skeletal Muscle, 24 h): 0.11 ug-eq/g
% Dose ([5]; Skin, 24 h): 0.00%
Conc. ([5]; Skin, 24 h): 0.13 ug-eq/g
% Dose ([5]; Spinal Cord, 24 h): 0.00%
Conc. ([5]; Spinal Cord, 24 h): <LOD
% Dose ([5]; Spleen, 24 h): 0.00%
Conc. ([5]; Spleen, 24 h): 0.63 ug-eq/g
% Dose ([5]; Stomach, 24 h): 0.11%
Conc. ([5]; Stomach, 24 h): 1.92 ug-eq/g
% Dose ([5]; Testes (L + R), 24 h): 0.02%
Conc. ([5]; Testes (L + R), 24 h): 1.95 ug-eq/g
% Dose ([5]; Thyroid Gland, 24 h): 0.00%
Conc. ([5]; Thyroid Gland, 24 h): 0.30 ug-eq/g
% Dose ([5]; Total GI Tract Contents, 24 h): 5.61%
% Dose ([5]; Total Recovery, 24 h): 81.10%
% Dose ([5]; Urine, collected over 24 hr): 23.72%
% Dose ([5]; Whole Blood, 24 h): 0.00%
Conc. ([5]; Whole Blood, 24 h): 0.85 ug-eq/g
main species observed in plasma ([5]; dog, in vivo, po): the parent drug
prodrug concentration in the plasma ([5]; dog, in vivo, po): below the level of assay detection
CC50 (MT-2 cells): 70 µM
